How the values were obtained:
Type in all cases: cell-based
[1] = test system: cPLA2 mRNA expression; experiment: cPLA2 RT-PCR in serum-free MDA-MB-231 cells; conditions: TPA versus control, serum-free medium; FIG. 12
Procedure: (§1) MDA-MB-231 cells were cultured in supplemented medium, then the cells were incubated at 37° C., CO2 5%. MDA-MB-231 cells were cultured in 6-well plates. A day before treatment administration, medium was changed with serum-free medium for 24 hours. Treatment administration was done by administering various doses of Phaleria macrocarpa extract dissolved in organic solvent. RNA isolation was conducted using Trizol. The RNAs then were used in RT-PCR process using specific primer for each gene we used. RT-PCR reactions were performed in PCR machines with optimized conditions. RT-PCR products were analyzed using electrophoresis technique on agarose gel 2%, and quantified using Chemidoc.

[2] = test system: VEGF-C mRNA expression; experiment: VEGF-C RT-PCR in serum-free MDA-MB-231 cells; conditions: TPA versus control, serum-free medium; FIG. 13
Procedure: as §1

[3] = test system: COX-1 mRNA expression; experiment: COX-1 RT-PCR in serum-free MDA-MB-231 cells; conditions: TPA alone versus control; FIG. 11
Procedure: as §1

SMILES: CCCCCCCCCCCCCC(=O)O[C@@H]1[C@@H](C)[C@@]2(O)[C@@H](C=C(CO)C[C@]3(O)C(=O)C(C)=C[C@@H]23)[C@@H]2C(C)(C)[C@]12OC(C)=O [TPA]
- cPLA2 mRNA expression [1]: increase in cPLA2 mRNA expression significantly
- VEGF-C gene in mRNA level [2]: significant increase of VEGF-C gene
- mRNA expression of COX-1 [3]: did not show any significant differences compared to control

Reference: patent US9078917B2, “Extract of Phaleria macrocarpa as an antineoplastic, anti-inflammatory and antiangiogenic agent” (PT. Dexa Medica, priority 2008, dated 2015)
